Measured values reported in article PMC12102759 (Protein Science : A Publication of the Protein Society, 2025).

Tested on: PABPC1 PABC
Format: binding, human
Conditions: DMS-BM library, bait PABPC1 PABC, prey ATXN2, peptide TLNPNAKEFNPRSFSQ; S = wild type, row aa = residue at this position

Row | Sequence | DMS-derived PSSM value, position S15
1 | TLNPNAKEFNPRSFSQ S15E (TLNPNAKEFNPRSFEQ) | 0.1009
2 | TLNPNAKEFNPRSFSQ S15F (TLNPNAKEFNPRSFFQ) | 0.01014
3 | TLNPNAKEFNPRSFSQ S15G (TLNPNAKEFNPRSFGQ) | 0.2429
4 | TLNPNAKEFNPRSFSQ S15H (TLNPNAKEFNPRSFHQ) | 0.01215
5 | TLNPNAKEFNPRSFSQ S15I (TLNPNAKEFNPRSFIQ) | 0.0111
6 | TLNPNAKEFNPRSFSQ S15K (TLNPNAKEFNPRSFKQ) | 0.007327
7 | TLNPNAKEFNPRSFSQ S15L (TLNPNAKEFNPRSFLQ) | 0.001672
8 | TLNPNAKEFNPRSFSQ S15M (TLNPNAKEFNPRSFMQ) | 0.1078
9 | TLNPNAKEFNPRSFSQ S15N (TLNPNAKEFNPRSFNQ) | 0.007151
10 | TLNPNAKEFNPRSFSQ S15P (TLNPNAKEFNPRSFPQ) | 0.326
11 | TLNPNAKEFNPRSFSQ S15Q (TLNPNAKEFNPRSFQQ) | 0.01622
12 | TLNPNAKEFNPRSFSQ S15R (TLNPNAKEFNPRSFRQ) | 0.01068
13 | TLNPNAKEFNPRSFSQ S15T (TLNPNAKEFNPRSFTQ) | 0.0005737
14 | TLNPNAKEFNPRSFSQ S15V (TLNPNAKEFNPRSFVQ) | 0.009732
15 | TLNPNAKEFNPRSFSQ S15W (TLNPNAKEFNPRSFWQ) | 0.05986
16 | TLNPNAKEFNPRSFSQ S15Y (TLNPNAKEFNPRSFYQ) | 0.004758

Same assay, conditions: DMS-BM library, bait PABPC1 PABC, prey ATXN2, peptide TLNPNAKEFNPRSFSQ; T = wild type, row aa = residue at this position

Row | Sequence | DMS-derived PSSM value, position T1
17 | TLNPNAKEFNPRSFSQ T1A (ALNPNAKEFNPRSFSQ) | 0.03403
18 | TLNPNAKEFNPRSFSQ T1D (DLNPNAKEFNPRSFSQ) | 0.106
19 | TLNPNAKEFNPRSFSQ T1E (ELNPNAKEFNPRSFSQ) | 0.003724
20 | TLNPNAKEFNPRSFSQ T1F (FLNPNAKEFNPRSFSQ) | 0.0001584
21 | TLNPNAKEFNPRSFSQ T1G (GLNPNAKEFNPRSFSQ) | 0.1015
22 | TLNPNAKEFNPRSFSQ T1H (HLNPNAKEFNPRSFSQ) | 0.01756
23 | TLNPNAKEFNPRSFSQ T1I (ILNPNAKEFNPRSFSQ) | 0.00436
24 | TLNPNAKEFNPRSFSQ T1K (KLNPNAKEFNPRSFSQ) | 0.03828
25 | TLNPNAKEFNPRSFSQ T1L (LLNPNAKEFNPRSFSQ) | 0.1166
26 | TLNPNAKEFNPRSFSQ T1M (MLNPNAKEFNPRSFSQ) | 0.006287
27 | TLNPNAKEFNPRSFSQ T1N (NLNPNAKEFNPRSFSQ) | 0.02571
28 | TLNPNAKEFNPRSFSQ T1P (PLNPNAKEFNPRSFSQ) | 0.04902
29 | TLNPNAKEFNPRSFSQ T1Q (QLNPNAKEFNPRSFSQ) | 0.00769
30 | TLNPNAKEFNPRSFSQ T1R (RLNPNAKEFNPRSFSQ) | 0.08249
31 | TLNPNAKEFNPRSFSQ T1S (SLNPNAKEFNPRSFSQ) | 0.004758
32 | TLNPNAKEFNPRSFSQ T1V (VLNPNAKEFNPRSFSQ) | 0.03168
33 | TLNPNAKEFNPRSFSQ T1W (WLNPNAKEFNPRSFSQ) | 0.001527
34 | TLNPNAKEFNPRSFSQ T1Y (YLNPNAKEFNPRSFSQ) | 0.3306

Tested on: G3BP1 NFT2
Format: binding, human
Conditions: library DMS-CoV; bait G3BP1 NFT2; prey N; peptide APRITFGGPSDSTGSN; listed as aa = residue placed at this position; column sums to 1

Row | Sequence | DMS PSSM value, A (position 1) | DMS PSSM value, D (position 11) | DMS PSSM value, F (position 6) | DMS PSSM value, G (position 7) | DMS PSSM value, G (position 8) | DMS PSSM value, G (position 14) | DMS PSSM value, I (position 4) | DMS PSSM value, P (position 2) | DMS PSSM value, P (position 9) | DMS PSSM value, R (position 3)
35 | APRITFGGPSDSTGSN | 0.1536 | 0.2538 | 0.991 | 0.9101 | 0.05897 | 0.009135 | 0.9676 | 0.199 | 0.679 | 0.004269
36 | APRITFGGPSDSTGSN A1D (DPRITFGGPSDSTGSN) | 0.5313 | – | – | – | – | – | – | – | – | –
37 | APRITFGGPSDSTGSN A1E (EPRITFGGPSDSTGSN) | 0.1097 | – | – | – | – | – | – | – | – | –
38 | APRITFGGPSDSTGSN A1F (FPRITFGGPSDSTGSN) | 0.0004523 | – | – | – | – | – | – | – | – | –
39 | APRITFGGPSDSTGSN A1G (GPRITFGGPSDSTGSN) | 0.004858 | – | – | – | – | – | – | – | – | –
40 | APRITFGGPSDSTGSN A1H (HPRITFGGPSDSTGSN) | 0.001405 | – | – | – | – | – | – | – | – | –
41 | APRITFGGPSDSTGSN A1I (IPRITFGGPSDSTGSN) | 0.004309 | – | – | – | – | – | – | – | – | –
42 | APRITFGGPSDSTGSN A1K (KPRITFGGPSDSTGSN) | 0 | – | – | – | – | – | – | – | – | –
43 | APRITFGGPSDSTGSN A1L (LPRITFGGPSDSTGSN) | 0.0004523 | – | – | – | – | – | – | – | – | –
44 | APRITFGGPSDSTGSN A1M (MPRITFGGPSDSTGSN) | 0.03133 | – | – | – | – | – | – | – | – | –
45 | APRITFGGPSDSTGSN A1N (NPRITFGGPSDSTGSN) | 0.016 | – | – | – | – | – | – | – | – | –
46 | APRITFGGPSDSTGSN A1P (PPRITFGGPSDSTGSN) | 0.006009 | – | – | – | – | – | – | – | – | –
47 | APRITFGGPSDSTGSN A1Q (QPRITFGGPSDSTGSN) | 0.01117 | – | – | – | – | – | – | – | – | –
48 | APRITFGGPSDSTGSN A1R (RPRITFGGPSDSTGSN) | 0 | – | – | – | – | – | – | – | – | –
49 | APRITFGGPSDSTGSN A1T (TPRITFGGPSDSTGSN) | 0.07786 | – | – | – | – | – | – | – | – | –
50 | APRITFGGPSDSTGSN A1V (VPRITFGGPSDSTGSN) | 0.004383 | – | – | – | – | – | – | – | – | –
51 | APRITFGGPSDSTGSN A1W (WPRITFGGPSDSTGSN) | 0.0009046 | – | – | – | – | – | – | – | – | –

Row | Sequence | DMS PSSM value, A (position 1) | DMS PSSM value, D (position 11) | DMS PSSM value, F (position 6) | DMS PSSM value, G (position 7) | DMS PSSM value, G (position 8) | DMS PSSM value, G (position 14) | DMS PSSM value, I (position 4) | DMS PSSM value, P (position 2) | DMS PSSM value, P (position 9) | DMS PSSM value, R (position 3)
52 | APRITFGGPSDSTGSN A1Y (YPRITFGGPSDSTGSN) | 0.04618 | – | – | – | – | – | – | – | – | –
53 | APRITFGGPSDSTGSN D11A (APRITFGGPSASTGSN) | – | 0.0135 | – | – | – | – | – | – | – | –
54 | APRITFGGPSDSTGSN D11E (APRITFGGPSESTGSN) | – | 0.08423 | – | – | – | – | – | – | – | –
55 | APRITFGGPSDSTGSN D11F (APRITFGGPSFSTGSN) | – | 0.001494 | – | – | – | – | – | – | – | –
56 | APRITFGGPSDSTGSN D11G (APRITFGGPSGSTGSN) | – | 0 | – | – | – | – | – | – | – | –
57 | APRITFGGPSDSTGSN D11H (APRITFGGPSHSTGSN) | – | 0.001494 | – | – | – | – | – | – | – | –
58 | APRITFGGPSDSTGSN D11I (APRITFGGPSISTGSN) | – | 0.002718 | – | – | – | – | – | – | – | –
59 | APRITFGGPSDSTGSN D11K (APRITFGGPSKSTGSN) | – | 0 | – | – | – | – | – | – | – | –
60 | APRITFGGPSDSTGSN D11L (APRITFGGPSLSTGSN) | – | 0.001888 | – | – | – | – | – | – | – | –
61 | APRITFGGPSDSTGSN D11M (APRITFGGPSMSTGSN) | – | 0.4258 | – | – | – | – | – | – | – | –
62 | APRITFGGPSDSTGSN D11N (APRITFGGPSNSTGSN) | – | 0.02182 | – | – | – | – | – | – | – | –
63 | APRITFGGPSDSTGSN D11P (APRITFGGPSPSTGSN) | – | 0.007134 | – | – | – | – | – | – | – | –
64 | APRITFGGPSDSTGSN D11Q (APRITFGGPSQSTGSN) | – | 0.007406 | – | – | – | – | – | – | – | –
65 | APRITFGGPSDSTGSN D11R (APRITFGGPSRSTGSN) | – | 0 | – | – | – | – | – | – | – | –
66 | APRITFGGPSDSTGSN D11S (APRITFGGPSSSTGSN) | – | 0.01892 | – | – | – | – | – | – | – | –
67 | APRITFGGPSDSTGSN D11T (APRITFGGPSTSTGSN) | – | 0.104 | – | – | – | – | – | – | – | –

Same assay, conditions: library DMS-CoV; bait G3BP1 NFT2; prey N; peptide APRITFGGPSDSTGSN; listed as aa = residue placed at this position; column sums to 1

Row | Sequence | DMS PSSM value, S (position 10) | DMS PSSM value, S (position 12) | DMS PSSM value, S (position 15) | DMS PSSM value, T (position 5) | DMS PSSM value, T (position 13)
68 | APRITFGGPSDSTGSN | 0.07098 | 0.1222 | 0.03905 | 0.4961 | 0.03355
